{"source": "patent US20100015603A1", "about": "“Chimeric proteins for measuring atp concentrations in pericellular space and related screening method” (priority 2005, published 2010)", "assay_type_in_all_cases": "cell-based", "key": {"pmeLUC": {"target": "T1, pmeLUC (Photinus pyralis, UniProt P08659, N119G/N50D)", "T1 construct": "expressed in transfected cells", "T1 sequence (P08659 with tags, fused parts or gaps N50D/N119G)": "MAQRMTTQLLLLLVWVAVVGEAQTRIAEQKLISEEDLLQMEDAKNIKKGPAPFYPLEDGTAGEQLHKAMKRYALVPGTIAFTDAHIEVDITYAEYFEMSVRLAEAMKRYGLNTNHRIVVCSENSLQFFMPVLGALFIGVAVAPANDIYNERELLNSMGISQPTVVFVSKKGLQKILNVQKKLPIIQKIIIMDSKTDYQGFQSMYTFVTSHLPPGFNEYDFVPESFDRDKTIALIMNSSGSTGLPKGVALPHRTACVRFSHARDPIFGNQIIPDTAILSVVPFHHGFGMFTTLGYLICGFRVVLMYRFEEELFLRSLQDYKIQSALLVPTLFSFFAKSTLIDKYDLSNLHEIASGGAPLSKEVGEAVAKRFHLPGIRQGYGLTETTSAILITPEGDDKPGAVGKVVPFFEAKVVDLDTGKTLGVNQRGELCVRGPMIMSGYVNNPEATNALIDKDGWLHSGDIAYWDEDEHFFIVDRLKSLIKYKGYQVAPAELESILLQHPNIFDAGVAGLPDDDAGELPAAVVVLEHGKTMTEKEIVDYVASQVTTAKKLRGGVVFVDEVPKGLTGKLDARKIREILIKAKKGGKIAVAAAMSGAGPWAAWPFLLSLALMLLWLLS", "assay": "Response of HEK293-pmeLUC cells to extracellular nucleotides (affinity and selectivity of the pmeLUC probe, luminescence)", "details": "for sensitivity of pmeLUC to other nucleotides: HEK293-pmeLUC cells, FIG. 2A", "protocol": "(§1) ATP was measured in the custom-made luminometer described by Rizzuto and co-workers (Brini et al., 1999; Jouaville et al., 1999). For experiments, cells were plated onto 13 mm coverslips and were placed in a 37° C. thermostatted chamber (diameter 15 mm, height 2 mm) and perfused with a saline solution supplemented with luciferin at a concentration of 5 μM. The chamber was held in a photomultiplier kept in a dark refrigerated (4° C.) box. Light emission was detected by a Thorn EMI photon counting board installed in an IBM-compatible computer. The board allowed storing of the data in the computer memory for further analysis. During the experiments the thermostatted chamber was continuously perfused with buffer by means of a Gilson peristaltic pump. Alternatively, ATP was measured in the supernatants using soluble luciferase in a Firezyme luminometer as previously described (Baricordi et al., 1999; Solini et al, 2004; Zanovello et al., 1990).\nAffinity of pmeLUC for ATP is rather low, with a threshold of about 10 μM, however, subsequent ATP additions elicit further increases in light emission that allow building a calibration curve (FIG. 2B). Importantly, pmeLUC is insensitive to all other nucleotides tested (ADP, UTP, UDP and GTP) (FIG. 2A)."}, "HEK293-pmeLUC cells": {"system": "HEK293-pmeLUC cells", "details": "HEK293-pmeLUC cells, not shown", "protocol": "(§2) HEK293 cells were cultured in DMEM-F12 (Sigma-Aldrich). Media were supplemented with 10% heat-inactivated FBS, 100 U/ml penicillin and 100 μg/ml streptomycin (Invitrogen corporation, San Giuliano Milanese, Italy). ACN neuroblastoma cells were cultured in DMEM supplemented with MEM non-essential amino acid solution 100× (Sigma-Aldrich). HEK293 cells were transfected with the calcium phosphate method. Cells transiently expressing the pmeLUC construct were assayed 36 hours after transfection. Clones stably expressing pmeLUC or the P2X7R were generated by culture of the transfected cells in the presence of G418 (0.8 mg/ml, added 48 hours after transfection) for 3 weeks. Stable P2X7- or pmeLUC-expressing clones were kept in the continuous presence of 0.2 mg/ml of G418 sulphate (Geneticin) (Calbiochem, la Jolla, Calif.). ACN cells were transfected with pmeLUC by lipofectamine (Invitrogen) and tested 24 hours after transfection. Briefly, cells were incubated in 250 μl serum-free transfection medium (OPTIMEM) in the presence of lipofectamine-plus-DNA (0.4 μg per well). After 3 hours incubation 1 ml of DMEM plus 10% FBS supplemented with MEM non-essential amino acid solution 100× (Sigma-Aldrich) was added. Cells were assayed 24 hours after transfection. In order to allow a high level of plasma membrane expression of the transfected constructs, cells were incubated overnight in the presence of 1 mM DTT (Mezghrani et al, 2001). Furthermore, they were also kept at room temperature (21° C.) for two hours prior to transfer into the thermostated luminometer chamber.\n(§3) ATP was measured in the custom-made luminometer described by Rizzuto and co-workers (Brini et al., 1999; Jouaville et al., 1999). […] Light emission was detected by a Thorn EMI photon counting board installed in an IBM-compatible computer. […] Alternatively, ATP was measured in the supernatants using soluble luciferase in a Firezyme luminometer as previously described (Baricordi et al., 1999; Solini et al, 2004; Zanovello et al., 1990)."}, "human P2X7R": {"target": "T2, human P2X7R (Homo sapiens, UniProt Q99572)", "T2 construct": "expressed in transfected cells; host or cells: HEK293 (HEK293-hP2X7/pmeLUC)", "T2 sequence (Q99572 1-595)": "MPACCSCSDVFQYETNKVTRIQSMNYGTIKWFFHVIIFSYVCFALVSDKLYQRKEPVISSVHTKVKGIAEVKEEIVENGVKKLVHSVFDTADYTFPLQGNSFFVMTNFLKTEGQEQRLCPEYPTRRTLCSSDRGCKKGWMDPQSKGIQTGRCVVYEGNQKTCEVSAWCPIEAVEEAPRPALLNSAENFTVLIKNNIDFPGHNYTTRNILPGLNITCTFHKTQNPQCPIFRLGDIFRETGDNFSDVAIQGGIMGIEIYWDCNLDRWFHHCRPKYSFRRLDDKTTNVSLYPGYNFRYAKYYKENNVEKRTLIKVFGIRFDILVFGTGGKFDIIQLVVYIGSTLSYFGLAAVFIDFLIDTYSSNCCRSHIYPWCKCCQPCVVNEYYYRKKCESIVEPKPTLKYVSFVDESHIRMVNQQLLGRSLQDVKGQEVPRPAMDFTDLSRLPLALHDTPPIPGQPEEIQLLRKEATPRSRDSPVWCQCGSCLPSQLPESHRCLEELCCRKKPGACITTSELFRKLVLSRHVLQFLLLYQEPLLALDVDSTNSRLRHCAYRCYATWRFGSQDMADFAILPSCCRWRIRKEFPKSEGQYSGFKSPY", "assay": "ATP release through the P2X7 receptor in HEK293-hP2X7/pmeLUC cells, pmeLUC luminescence", "details": "HEK293-hP2X7/pmeLUC", "protocol": "as §2, §1\nEarly experiments carried out not only by the authors of the present invention had shown that supernatants from cells expressing the P2X7 receptor contained a high level of ATP, which was not due to an accelerated rate of cell lysis (Baricordi et al., 1999; Adinolfi et al., 2003; Solini et al., 2004). […] To test such hypothesis several HEK293 clones were generated stably transfected with the human or rat P2X7R (HEK293-hP2X7 or HEK293-rP2X7, respectively). These clones were then transfected with pmeLUC (HEK293-P2X7/pmeLUC)."}, "native P2X7R": {"target": "T3, native P2X7R (Homo sapiens, UniProt Q99572)", "T3 construct": "the human ACN neuroblastoma, a cell line expressing the native P2X7R; endogenous in cells; host or cells: ACN human neuroblastoma cells, transiently transfected with pmeLUC as sensor", "T3 sequence (Q99572 1-595)": "T2 sequence (Q99572 1-595)", "assay": "ATP release from ACN neuroblastoma cells transfected with pmeLUC", "details": "ACN cells", "protocol": "HEK293 cells were cultured in DMEM-F12 (Sigma-Aldrich). Media were supplemented with 10% heat-inactivated FBS, 100 U/ml penicillin and 100 μg/ml streptomycin (Invitrogen corporation, San Giuliano Milanese, Italy). ACN neuroblastoma cells were cultured in DMEM supplemented with MEM non-essential amino acid solution 100× (Sigma-Aldrich). HEK293 cells were transfected with the calcium phosphate method. Cells transiently expressing the pmeLUC construct were assayed 36 hours after transfection. Clones stably expressing pmeLUC or the P2X7R were generated by culture of the transfected cells in the presence of G418 (0.8 mg/ml, added 48 hours after transfection) for 3 weeks. Stable P2X7- or pmeLUC-expressing clones were kept in the continuous presence of 0.2 mg/ml of G418 sulphate (Geneticin) (Calbiochem, la Jolla, Calif.). ACN cells were transfected with pmeLUC by lipofectamine (Invitrogen) and tested 24 hours after transfection. […]\nas §3\nDifferences in basal levels of luminescence emission are neutralized by expressing luminescence as percentage increase over basal (FIG. 3B), however, the higher basal luminescence of HEK293-hP2X7/pmeLUC might reflect a real increased level of pericellular ATP compared to HEK293-pmeLUC, rather than a higher expression of pmeLUC. In this case, reporting luminescence as percent increase over basal would mask such a difference in the extracellular ATP concentration. To clarify this issue, total pmeLUC protein was measured by western blotting (FIG. 3C). […] To measure quantitatively surface pmeLUC expression, different clones were analyzed by FACS. […]"}, "rat P2X7R": {"target": "T4, rat P2X7R (Rattus norvegicus, UniProt Q64663)", "T4 construct": "expressed in transfected cells; host or cells: HEK293 (HEK293-rP2X7/pmeLUC)", "T4 sequence (Q64663 1-595)": "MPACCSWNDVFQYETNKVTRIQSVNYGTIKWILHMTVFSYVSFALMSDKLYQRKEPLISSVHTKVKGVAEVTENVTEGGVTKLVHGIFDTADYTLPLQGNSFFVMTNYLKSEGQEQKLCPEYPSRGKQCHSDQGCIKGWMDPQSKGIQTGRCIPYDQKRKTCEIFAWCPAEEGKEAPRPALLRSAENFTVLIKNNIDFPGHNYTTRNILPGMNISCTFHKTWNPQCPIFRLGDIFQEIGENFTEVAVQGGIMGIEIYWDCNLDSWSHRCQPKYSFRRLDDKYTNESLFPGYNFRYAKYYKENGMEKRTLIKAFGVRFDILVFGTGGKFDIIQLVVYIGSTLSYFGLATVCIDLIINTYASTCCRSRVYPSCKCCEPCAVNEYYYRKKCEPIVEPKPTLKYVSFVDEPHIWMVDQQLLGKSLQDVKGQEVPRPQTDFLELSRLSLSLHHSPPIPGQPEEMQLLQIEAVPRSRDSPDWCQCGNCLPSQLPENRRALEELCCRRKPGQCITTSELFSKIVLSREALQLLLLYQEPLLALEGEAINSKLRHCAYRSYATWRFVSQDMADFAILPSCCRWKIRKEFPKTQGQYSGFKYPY", "assay": "ATP release through the P2X7 receptor in HEK293-rP2X7/pmeLUC cells, pmeLUC luminescence", "details": "HEK293-rP2X7/pmeLUC, pre-treatment with oATP, FIG. 4A", "protocol": "as §2\nas §3, with “1990). […]” for “1990).”"}}, "data": [{"smiles": "O=c1ccn([C@@H]2O[C@H](COP(=O)(O)OP(=O)(O)O)[C@@H](O)[C@H]2O)c(=O)[nH]1", "note": "[UDP]", "values": [{"measurement": "sensitivity of pmeLUC to other nucleotides", "setting": "pmeLUC", "result": "insensitive"}]}, {"smiles": "O=c1ccn([C@@H]2O[C@H](COP(=O)(O)OP(=O)(O)OP(=O)(O)O)[C@@H](O)[C@H]2O)c(=O)[nH]1", "note": "[UTP]", "values": [{"measurement": "sensitivity of pmeLUC to other nucleotides", "setting": "pmeLUC", "result": "insensitive"}]}, {"smiles": "C[N+](C)(C)CCOC(N)=O", "note": "[carbachol]", "values": [{"measurement": "ATP release triggered by agonists of G protein-coupled receptors", "setting": "HEK293-pmeLUC cells", "result": "negligible ATP release"}]}, {"smiles": "NCCc1c[nH]cn1", "note": "[histamine]", "values": [{"measurement": "ATP release triggered by agonists of G protein-coupled receptors", "setting": "HEK293-pmeLUC cells", "result": "negligible ATP release"}]}, {"smiles": "Nc1ncnc2c1ncn2[C@@H](C=O)O[C@@H](C=O)COP(=O)(O)OP(=O)(O)OP(=O)(O)O", "note": "[oATP, oxidized ATP]", "values": [{"measurement": "basal luminescence after oATP pretreatment", "setting": "human P2X7R; n=8, untreated 12250±1500 cps", "result": "5800±1300", "unit": "cps"}, {"measurement": "ATP-induced luminescence increase in oATP-treated cells", "setting": "human P2X7R; pre-treatment with oATP, FIG. 4B", "result": "matches exactly that of HEK293-pmeLUC"}, {"measurement": "block of the BzATP-triggered luminescence increase", "setting": "human P2X7R; pre-treatment with 300 μM oATP for 2 hours", "result": "fully blocked"}, {"measurement": "effect on ATP-dependent luminescence increase (calibration curve; inhibition of luciferase itself)", "setting": "pmeLUC; calibration curve in presence and absence of oATP, not shown", "result": "not affected"}, {"measurement": "block of BzATP-induced ATP release", "setting": "native P2X7R; 300 μM oATP", "result": "fully blocked"}, {"measurement": "basal luminescence total level after treatment with oATP", "setting": "native P2X7R; n=5, before treatment 3500±350 cps", "result": "1500±260", "unit": "cps"}, {"measurement": "ATP-induced luminescence increase in oATP-treated cells", "setting": "rat P2X7R", "result": "matches exactly that of HEK293-pmeLUC"}]}]}
